From patent US10744128B2, “6-(5-membered heteroaryl)isoquinolin-3-yl-(5-membered heteroaryl) carboxamides and preparation and use thereof” (Samumed, LLC, priority 2017, dated 2020)

Columns and labels:
[1] = system: Wnt-responsive promoter (Sp5-Luc reporter) in SW480 colon carcinoma cells; assay: Sp5-Luc reporter gene screening assay for Wnt activity in SW480 cells; format: cell-based, human; conditions: Homo sapiens, 36 to 48 hours, luminescence
Excerpt: The screening assay for Wnt activity is described as follows. Reporter cell lines can be generated by stably transducing cancer cell lines (e.g., colon cancer) or primary cells (e.g., IEC-6 intestinal cells) with a lentiviral construct that includes a Wnt-responsive promoter driving expression of the firefly luciferase gene.
SW480 colon carcinoma cells were transduced with a lentiviral vector expressing luciferase with a human Sp5 promoter consisting of a sequence of eight TCF/LEF binding sites. SW480 cells stably expressing the Sp5-Luc reporter gene and a hygromycin resistance gene were selected by treatment with 150 μg/mL of hygromycin for 7 days. These stably transduced SW480 cells were expanded in cell culture and used for all further screening activities. […] For Sp5-Luc reporter gene assays, the cells were plated at 4,000 cells/well in 384-well plates with a DMEM medium containing 1% fetal bovine serum, and 1% Penicillin-Streptomycin and incubated for 36 to 48 hours at 37° C. and 5% CO2. Following incubation, 15 μl of BriteLite Plus luminescence reagent (Perkin Elmer) was added to each well of the 384-well assay plates. The plates were placed on an orbital shaker for 2 min and then luminescence was quantified using the Envision (Perkin Elmer) plate reader. Readings were normalized to DMSO only treated cells, and normalized activities were utilized for EC50 calculations using the dose-response log (inhibitor) vs. response −variable slope (four parameters) nonlinear regression feature available in GraphPad Prism 5.0 (or Dotmatics).

recombinant GSK3β kinase = recombinant GSK3β kinase (Homo sapiens (Human), UniProt P49841); assay: GSK3β kinase assay (Ser/Thr 09 peptide Z-lyte, FRET); format: biochemical; conditions: GSK3β kinase, 46 μM ATP, one hour; method calls values IC50
[2] = system: SW480 colon carcinoma cells; assay: Cell viability assay (CellTiter-Glo) in SW480 cells; format: cell-based, human; conditions: Homo sapiens, 96 h, four days
Method: SW480 colon carcinoma cells were transduced with a lentiviral vector expressing luciferase with a human Sp5 promoter consisting of a sequence of eight TCF/LEF binding sites. SW480 cells stably expressing the Sp5-Luc reporter gene and a hygromycin resistance gene were selected by treatment with 150 µg/mL of hygromycin for 7 days. These stably transduced SW480 cells were expanded in cell culture and used for all further screening activities.
For the Cell Viability Assays, the cells were plated at 2,000 cells/well in 384-well plates with a DMEM medium containing 1% fetal bovine serum, and 1% Penicillin-Streptomycin and incubated for […] at 37° C. and 5% CO2. Eight replicates of DMSO-treated cells served as controls and cells treated with compound were performed in duplicate.
After incubation, 10 μL of CellTiter-Glo (Promega) was added to each well allowed to incubate for approximately 12 minutes. This reagent “results in cell lysis and generation of a luminescent signal proportional to the amount of ATP present. The amount of ATP is directly proportional to the number of cells present in culture, in agreement with previous reports. The CellTiter-Glo® Assay generates a “glow-type” luminescent signal, produced by the luciferase reaction (Promega.com)”.

[3] = system: primary human fibroblasts derived from IPF patients (LL29 cells), α-smooth muscle actin; assay: Inhibition of fibrotic process: αSMA in TGF-β1 treated LL29 fibroblasts; format: cell-based; conditions: Homo sapiens, Fibroblast, 96 h; LL29 cells, TGF-β1 20 ng/mL, 4 days, % cells positive for αSMA
Method: Representative compounds were screened using primary human fibroblasts (derived from IPF patients) treated with TGF-β1 to determine their ability to inhibit the fibrotic process.
LL29 cells were plated at 1,500 cells/well in 70 μL/well F12 medium supplemented with 1% Fetal Bovine Serum. […] Wells treated with TGF-β1 and containing DMSO were used as positive control, and cells with only DMSO were negative control. […] Following incubation for 4 days, SYTOX green nucleic acid stain (Life Technologies [Thermo Fisher Scientific]) was added to the wells at a final concentration of 1 μM and incubated at room temperature for 30 min.

IL-6 = IL-6 inhibition in LPS-stimulated human peripheral blood mononuclear cells (HTRF); format: cell-based; conditions: Homo sapiens, PBMC; for EC50: huPBMCs, LPS 50 ng/mL, 22 hours, IL-6 HTRF; for inhibition at 10 µM: read-out: percent inhibition at 10 μM
Method: Fresh Normal PB MNC (Catalog # PB001, AllCells, Alameda, Calif.) were shipped overnight at 4° C. and resuspended in Roswell Park Memorial Institute (RPMI) 1640 Medium, with GlutaMAX Supplement (Catalog #61870127, ThermoFisher Scientific, Waltham, Mass.) supplemented with 1% Penicillin-Streptomycin (Catalog #15140163, ThermoFisher Scientific, Waltham, Mass.) and 1% fetal bovine serum (FBS) (Catalog #16140089, ThermoFisher Scientific, Waltham, Mass.) assay media.
Fresh normal human peripheral blood mononuclear cells (huPBMCs) were resuspended in 1% FBS-RPMI assay media with 1% Penicillin-Streptomycin 1% to a cell concentration of 1×10e6 cells/mL. […] 50 ng/mL of Lipopolysaccharides from Escherichia coli 0111:B4 (Catalog #L5293-2ML, Sigma-Aldrich, St. Louis, Mo.) was added after 2 hours and cells were incubated for another 22 hours at 37° C.-5% CO2. After 22 hour incubation, a mixture of anti-IL6 XL665 and anti-IL-6 Cryptate diluted in reconstitution buffer (Catalog #62IL6PEC, Cisbio Inc., Bedford, Mass.) was added to each well. Following incubation for 3 hours at room temperature, Homogeneous Time-Resolved Fluorescence (HTRF) was measured using the Envision (Perkin Elmer, Shelton, Conn.) at 665 nm and […]. The ratio of fluorescence at 665 nm to 620 nm was used as a readout for IL-6 quantification. All samples were processed in duplicate. Readings were normalized to DMSO treated cells and normalized activities were utilized for EC50 calculations. EC50 was determined using software generated by Dotmatics Limited (Windhill Bishops Stortford Herts, UK) using the Levenberg-Marquardt 4 parameter fitting procedure with finite different gradients.

[4] = biological target: recombinant DYRK1A kinase (Homo sapiens (Human), UniProt Q13627); assay: DYRK1A kinase assay (Ser/Thr 18 peptide Z-lyte, FRET); conditions: DYRK1A kinase, 30 μM ATP, one hour; method calls values IC50

Sequence of recombinant GSK3β kinase (P49841 whole entry): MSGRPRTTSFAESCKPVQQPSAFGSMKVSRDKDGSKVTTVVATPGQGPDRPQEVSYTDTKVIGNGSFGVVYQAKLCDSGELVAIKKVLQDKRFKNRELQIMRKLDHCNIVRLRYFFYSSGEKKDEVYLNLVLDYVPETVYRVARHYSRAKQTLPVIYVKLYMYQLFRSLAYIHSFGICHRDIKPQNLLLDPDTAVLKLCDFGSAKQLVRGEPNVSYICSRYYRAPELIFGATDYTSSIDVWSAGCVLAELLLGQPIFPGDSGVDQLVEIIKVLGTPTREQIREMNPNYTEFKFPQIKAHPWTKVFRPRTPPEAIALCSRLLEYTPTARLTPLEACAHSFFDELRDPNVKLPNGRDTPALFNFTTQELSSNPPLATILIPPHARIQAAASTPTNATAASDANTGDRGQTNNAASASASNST

| SMILES | EC50 [1] | EC50 (recombinant GSK3β kinase) | EC50 [2] | EC50 [3] | EC50 (IL-6) | inhibition at 10 µM (IL-6) | EC50 [4] |
| --- | --- | --- | --- | --- | --- | --- | --- |
| CN(C)C1CN(c2nc(C(=O)Nc3cc4cc(-c5cnn(C)c5)ccc4cn3)co2)C1 [Compound 18, 2-(3-(Dimethylamino)azetidin-1-yl)-N-(6-(1-methyl-1H-pyrazol-4-yl)isoquinolin-3-yl)oxazole-4-carboxamide] | 1040 nM | 1260 nM | 3910 nM | 481 nM | > 10000 nM | 9% | 15 nM |
| Cn1cc(-c2ccc3cnc(NC(=O)c4coc(C5CCNCC5)n4)cc3c2)cn1 [Compound 19, N-(6-(1-Methyl-1H-pyrazol-4-yl)isoquinolin-3-yl)-2-(piperidin-4-yl)oxazole-4-carboxamide] | 106 nM | 979 nM | 300 nM | 170 nM | 695 nM |  | 12 nM |
| CN1CCC(c2nc(C(=O)Nc3cc4cc(-c5cnn(C)c5)ccc4cn3)co2)CC1 [Compound 20, N-(6-(1-Methyl-1H-pyrazol-4-yl)isoquinolin-3-yl)-2-(1-methylpiperidin-4-yl)oxazole-4-carboxamide] | 107 nM | 3240 nM | 427 nM | 2000 nM | 3690 nM |  | 15 nM |
| CC(C)N1CCC(c2nc(C(=O)Nc3cc4cc(-c5cnn(C)c5)ccc4cn3)co2)CC1 [Compound 22, 2-(1-Isopropylpiperidin-4-yl)-N-(6-(1-methyl-1H-pyrazol-4-yl)isoquinolin-3-yl)oxazole-4-carboxamide] | 180 nM | 2590 nM | 782 nM | 2910 nM | > 10000 nM | 27.8% | 16 nM |
| CN1CCN(c2nc(C(=O)Nc3cc4cc(-c5cnn(C)c5)ccc4cn3)co2)CC1 [Compound 23, N-(6-(1-Methyl-1H-pyrazol-4-yl)isoquinolin-3-yl)-2-(4-methylpiperazin-1-yl)oxazole-4-carboxamide] | 1020 nM | 2180 nM | 3730 nM | 325 nM | > 10000 nM | 5.5% | 18 nM |
| CN(C)C1CN(c2ncc(C(=O)Nc3cc4cc(-c5cnn(C)c5)ccc4cn3)s2)C1 [Compound 24, 2-(3-(Dimethylamino)azetidin-1-yl)-N-(6-(1-methyl-1H-pyrazol-4-yl)isoquinolin-3-yl)thiazole-5-carboxamide] | 1320 nM | 1760 nM | 1640 nM | 2750 nM | 3020 nM |  | 2 nM |
| Cn1cc(-c2ccc3cnc(NC(=O)c4csc(C5CCNCC5)n4)cc3c2)cn1 [Compound 25, N-(6-(1-Methyl-1H-pyrazol-4-yl)isoquinolin-3-yl)-2-(piperidin-4-yl) thiazole-4-carboxamide] | 546 nM | 3060 nM | 876 nM | 1190 nM | 2580 nM |  | 39 nM |
| CN1CCN(c2nc(C(=O)Nc3cc4cc(-c5cnn(C)c5)ccc4cn3)cs2)CC1 [Compound 26, N-(6-(1-Methyl-1H-pyrazol-4-yl)isoquinolin-3-yl)-2-(4-methylpiperazin-1-yl)thiazole-4-carboxamide] | 1750 nM | 2190 nM | 3410 nM | 4700 nM | > 10000 nM | 40.3% | 3 nM |
| Cn1cc(-c2ccc3cnc(NC(=O)c4cnn(C5CCNCC5)c4)cc3c2)nn1 [Compound 29, N-(6-(1-Methyl-1H-1,2,3-triazol-4-yl)isoquinolin-3-yl)-1-(piperidin-4-yl)-1H-pyrazole-4-carboxamide] | 30 nM | 230 nM | 60 nM | 135 nM | 366 nM |  | 3 nM |
| CN1CCC(n2cc(C(=O)Nc3cc4cc(-c5cn(C)nn5)ccc4cn3)cn2)CC1 [Compound 30, N-(6-(1-Methyl-1H-1,2,3-triazol-4-yl)isoquinolin-3-yl)-1-(1-methylpiperidin-4-yl)-1H-pyrazole-4-carboxamide] | 14 nM | 322 nM | 32 nM | 83 nM | 261 nM |  | 3 nM |
| CCN1CCC(n2cc(C(=O)Nc3cc4cc(-c5cn(C)nn5)ccc4cn3)cn2)CC1 [Compound 31, 1-(1-Ethylpiperidin-4-yl)-N-(6-(1-methyl-1H-1,2,3-triazol-4-yl)isoquinolin-3-yl)-1H-pyrazole-4-carboxamide] | 21 nM | 286 nM | 39 nM | 298 nM | 688 nM |  | 3 nM |
| CC(C)N1CCC(n2cc(C(=O)Nc3cc4cc(-c5cn(C)nn5)ccc4cn3)cn2)CC1 [Compound 32, 1-(1-Isopropylpiperidin-4-yl)-N-(6-(1-methyl-1H-1,2,3-triazol-4-yl)isoquinolin-3-yl)-1H-pyrazole-4-carboxamide] | 33 nM | 349 nM | 44 nM | 203 nM | 437 nM |  | 3 nM |
| Cn1cc(-c2ccc3cnc(NC(=O)c4cn(C5CCNCC5)nn4)cc3c2)nn1 [Compound 33, N-(6-(1-Methyl-1H-1,2,3-triazol-4-yl)isoquinolin-3-yl)-1-(piperidin-4-yl)-1H-1,2,3-triazole-4-carboxamide] | 71 nM | 316 nM | 257 nM | 562 nM | 852 nM |  | 7 nM |
| Cn1cc(-c2ccc3cnc(NC(=O)c4cn(C5CCN(CCF)CC5)nn4)cc3c2)nn1 [Compound 34, 1-(1-(2-Fluoroethyl)piperidin-4-yl)-N-(6-(1-methyl-1H-1,2,3-triazol-4-yl)isoquinolin-3-yl)-1H-1,2,3-triazole-4-carboxamide] | 230 nM | 395 nM | 664 nM | 642 nM | 1100 nM |  | 6 nM |
